Results as given in publication PMC12067741, “Inhibition of SOD1 trimerization is a novel drug target for ALS disease” (Translational Neurodegeneration, 2025).

Tests used:
[1] = BBB-PAMPA (parallel artificial membrane permeability assay); settings: PAMPA, 4 hour, 10 µM
Description: Next, we checked the basic in vitro ADME test including pharmacokinetics, plasma protein binding, CYP (Cytochrome P450) inhibition, metabolic stability and blood–brain barrier (BBB) permeability. […] We also plan to test safety panel assay in the future to obtain safety data for the drug.
Fig. S8. […]

[2] = tested on: MT-SOD1 inclusions in SK-N-SH cells; assay: SOD1 inclusions by immunofluorescence in SK-N-SH cells; assay type: cell-based; settings: SK-N-SH cells expressing MT-SOD1, 24 h
Description: Cells on coverslips were washed with PBS, fixed with 4% PFA for 30 min at room temperature and then permeabilized in 0.1% Triton X-100/PBS for 10 min. After incubation in blocking solution (goat serum diluted 1:200 in PBS) for 1 h, cells were incubated with primary antibodies in blocking buffer for overnight at 4 °C. Finally, the cells were incubated with FITC- or Rhodamine-conjugated secondary antibody at 4 °C for 4 h. The nucleus was stained with 4, 6-diamidino-2-phenylindole and the endoplasmic reticulum (ER) was stained using the ER-Tracker Red dye for 10 min. Cells were washed three times with PBS, then the coverslips were mounted with the mounting solution (H-5501; Vector Laboratories, Burlingame, CA) and observed by fluorescence microscopy using Zeiss Apotome 2 (Software; Axiovision 4.8, Baden-Württemberg, Germany) and CELENA X (Logos Biosystems, Annandale, VA).
Cells with SOD1 aggregation were counted in the fluorescent images. Depending on the intensity of SOD1, cells with SOD1 aggregates were counted in randomly selected fields and quantified as a percentage to the total cells counted. In addition, to calculate the colocalization of the three colors of SOD1, we counted the cells where the three colored images overlapped at a point of high intensity. […]
Fig. S1. […] After incubation, cells were fixed with 4 % PFA and observed under the fluorescence microscope. […]

Plasma stability = assay type: in vitro ADME; settings: human plasma, after 120 min of incubation

Structure (SMILES): COc1cc(C=CCOC2Cc3cc4ccc(=O)oc4cc3OC2(C)C)ccc1[N+](=O)[O-] (stereo not drawn) [PRG-A-04]
- Mean Pe [1]: 0.418 ×10⁻⁶ cm/s
- effect on SOD1 inclusions [2]: suppressed SOD1 inclusions
- stability in plasma (Plasma stability): stable
